One data set concerns LinkCD. Description: UV absorbance at […] nm of quenched aliquots, double-reciprocal plot. It counts as biochemical, Homo sapiens; Saccharomyces cerevisiae. Particulars: read-out: Enzyme kinetics (5-FC) / Km; PBS, 37 °C; CD active site.
The next data set relates to Nc1nc(=O)[nH]cc1F. In words: purified protein. Particulars: PBS, 37 °C, one experiment. It counts as biochemical, Saccharomyces cerevisiae.

What is called Vmax is the rate approached at saturating substrate.

For the compound `Nc1nc(=O)[nH]cc1F` [5-FC, 5-fluorocytosine], the Km with LinkCD came to 330 ± 40 µM. In the case of “CD (yeast cytosine deaminase) (Saccharomyces cerevisiae S288C)”, the Vmax in the data set with Nc1nc(=O)[nH]cc1F is 120000 µM/min/mg.
